Test: Single-molecule fluorescence tracking (HILO) of labeled molecules in their droplets
Format: physicochemical
Conditions: Alexa488-labeled peptide 10–100 pM in 0.9 mM non-labeled peptide droplets; 25 mM HEPES, 0.5 mM EDTA, 45 mM NaCl, 150 mg/mL dextran, pH 7.0; linear fit of MSD (4D slope)
Description: We quantitatively characterized the liquid droplet properties of the four designed peptides and compared them with those of p53. We measured the fusion of the designed peptide droplets in the solution used for p53 droplets (Supplementary Fig. S4). In the presence of 45 mM NaCl and 150 mg/mL dextran, the fusion of droplets for the four designed peptides was observed within 0.2 s, which was much faster than that for p53 (3.7 min)[8]. This gap in the fusion period implies different intrinsic dynamic properties. We measured the movement of Alexa488-labeled peptides within non-labeled peptide droplets using single-molecule fluorescence microscopy with a highly inclined and laminated optical sheet (HILO) illumination[37],[41] (Fig. 3A). […]
Single-molecule measurements were performed following the method described in our previous studies[37],[41]. An inverted fluorescence microscope (IX-73; Olympus) with a total internal reflection fluorescence unit (IX3RFAEVAW; Olympus) was used[52],[53]. […] The fluorescence collected via the objective lens was detected using an EM-CCD camera (iXon Ultra 888, Andor). […] Images were recorded at intervals of 15–154 ms after reducing the number of observable molecules in the droplets by photobleaching within one minute. […]

In the case of “RRRVVQRRRRGGGSGGGSGGGSDDDASQEDDD [DPp53N-(GGGS)3-DPp53C1]”, the “Average diffusion coefficient (D) in own droplets” value is reported as 2.03 ± 0.06 μm^2/s.
